Laboratory results from PubChem BioAssay AID449753 (NMMLSC, 2010).
The source made the active and inactive calls.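 Rule for the calls: active = EC50 under 30000 nM from a falling dose curve whose fit quality and slope passed set checks; inactive = the rest.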

Tested on: not listed separately
Experiment: age-related ROS inhibitors in S. cerevisiae – DHE fluorescence, primary hits, dose response (AID 449753)
Conditions: S. cerevisiae aged culture, superoxide DHE fluorescence, 7 d; at 30 µM (top of the series)

Compound	percent response (superoxide), lower = inhibition
CC(=O)O[C@H]1CCC2C3CC[C@H]4[C@@H](O)[C@H](O)CC[C@]4(C)C3CC[C@@]21C (stereo partly specified)	90.2 (inactive)
CC(C)OC(=O)CSc1nnc(-c2ccc(Cl)cc2Cl)o1	112 (inactive)
CC(=O)[C@@]1(O)CCC2C3CC[C@H]4C[C@@H](O)CC[C@]4(C)C3CC[C@@]21C (stereo partly specified)	129 (inactive)
O=C(Nc1ccc2nc3ccccc3nc2c1)c1ccccc1	57.7 (inactive)
CCN(CC)C(=O)CSc1nnc(-c2cccc(OC)c2)o1	92.6 (inactive)
C[C@]12CCC3C(CC[C@H]4C[C@@H](O)CC[C@]34C)C1CC[C@@H]2OC(=O)[C@H](N)CCCCN (stereo partly specified)	71.9 (inactive)
O=C(OCc1c(F)cccc1Cl)c1cnc2ccccc2n1	117 (inactive)
N#CCc1nn(-c2ccccc2)c2ncnc(N)c12	96.7 (inactive)
CCc1nc(NC(C)(C)C)c2cnn(-c3ccccc3)c2n1	88 (inactive)
CN(C)CCNc1ncnc2c1cnn2-c1ccc(Cl)cc1	99.2 (inactive)
O=C(/C=C/c1cccs1)NC(=S)NNC(=O)Cc1cccs1	121 (inactive)
O=C(Nc1ccc2nc3ccccc3nc2c1)c1ccc(Br)cc1	105 (inactive)
N#CC(c1nc2ccccc2nc1N1CCCC1)S(=O)(=O)c1ccccc1 (stereo unspecified)	98.7 (inactive)
C=CCOn1c(=O)c(-c2cccs2)[n+]([O-])c2ccccc21	104 (inactive)
O=C(/C=C/c1ccccc1)NC(=S)NNC(=O)Cc1cccs1	83 (inactive)
O=c1[nH]c(O)c(C=Nc2ccc(F)c(Cl)c2)c(=O)[nH]1	107 (inactive)
C#C[C@]1(O)[C@H](O)CC2C3CC[C@H]4C[C@@H](O)CC[C@]4(C)C3CC[C@@]21C (stereo partly specified)	87.4 (inactive)
O=C(Nc1cccc(Cl)c1)Nc1ccc2nccnc2c1	87.1 (inactive)
COc1ccc2nc3ccccc3nc2c1NC(=O)c1ccccc1Cl	56.6 (inactive)
O=C(O)c1cnc2ccccc2n1	114 (inactive)
C[C@]12CCC3C(CC[C@H]4C[C@@H](O)CC[C@]34C)[C@H]1CC[C@H]2O (stereo partly specified)	64.7 (inactive)

Tested on: S. cerevisiae aged culture, superoxide DHE fluorescence, 7 d
Experiment: as above
Conditions: not given

Compound	EC50
CC(C)OC(=O)c1ccc2nc3ccccc3nc2c1	16700 nM
COc1ccc2nc3ccccc3nc2c1N	660 nM
Cc1ccc(-c2nn(C(C)(C)C)c3ncnc(N)c23)cc1	3030 nM
OCC[n+]1c2ccccc2nc2ccc(N3CCOCC3)cc21	3810 nM
C[C@]12CCC3C(CC[C@H]4C[C@H](O)CC[C@]34C)C1C[C@@H](CCCCl)[C@@H]2O (stereo partly specified)	500 nM
COC(=O)c1cccc2nc3c(C(C)O)cccc3nc12 (stereo unspecified)	1290 nM
CC(C)(C)n1nc(-c2ccc(F)cc2)c2c(N)ncnc21	5170 nM
CC(C)(C)Nc1ncnc2c1cnn2-c1ccccc1	470 nM
[O-][n+]1c2ccccc2[n+]([O-])c2cc(O)ccc21	940 nM
C=CCSc1nnc(-c2ccc([N+](=O)[O-])cc2)o1	2900 nM
CC(C)(C)n1nc(-c2ccc(Cl)cc2)c2c(N)ncnc21	4790 nM
O=C1c2c(O)ccc(O)c2C(=O)c2c(NCCNCCO)ccc(NCCNCCO)c21	5250 nM
C=C1C(O)[C@@H]2O[C@]3(CC[C@H](/C=C/C(C)[C@@H]4CC(C)=CC5(O[C@H](C[C@@](C)(O)C(=O)O)CCC5O)O4)O3)CC[C@H]2O[C@@H]1C(O)CC(C)[C@H]1OC2(CCCCO2)CCC1C (stereo partly specified)	100 nM
Nc1cc2nc3ccccc3nc2cc1N	1850 nM
CNC(=O)c1cccc2nc3ccccc3nc12	14500 nM
COc1ccc2c(c1)c1nnc(SC)nc1n2C	3230 nM
C[C@]12CCC3C(CC[C@H]4C[C@H](O)CC[C@]34C)C1CCC2=O (stereo partly specified)	630 nM
CNc1ccc2nc3ccccc3[n+](C)c2c1	10100 nM
c1ccc2[nH]c3cc4ncnc4cc3nc2c1	40 nM
COc1ccc2c3c(cccc13)N(C)N=C2C	7910 nM
C#CCSc1nnc(-c2ccc([N+](=O)[O-])cc2)o1	4720 nM
FC(F)(F)c1nc2cc3nc4ccccc4[nH]c3cc2n1	210 nM
CCC(=Nc1ccccc1O)C1=C(O)CC(c2ccccc2)CC1=O (stereo unspecified)	1630 nM
Cn1c(O)c(C(=Nc2ccc(F)cc2)c2ccccc2Cl)c(=O)n(C)c1=O	3140 nM (inactive)
c1ccc2nc3ccccc3nc2c1	440 nM
